Square brackets hold non-standard residues; d marks the D form. Peptide text beside a SMILES is read from it. * marks the point of attachment. X3 = c1ccc(-c2cn(CC3CCCCC3)c([C@@H]3CCCN3*)n2)cc1; X2 = CC(C)n1cc(-c2ccccc2)nc1[C@@H]1CCCN1*; X1 = CCn1cc(-c2ccccc2)nc1[C@@H]1CCCN1*; 1Nal = N[C@@H](Cc1cccc2ccccc12)C(=O)O; 2Nal = N[C@@H](Cc1ccc2ccccc2c1)C(=O)O; X4 = Cn1cc(-c2ccccc2)nc1[C@@H]1CCCN1*; Ala(cPent) = N[C@@H](CC1CCCC1)C(=O)O; Gly(cPent) = N[C@H](C(=O)O)C1CCCC1; Ala(cPr) = N[C@@H](CC1CC1)C(=O)O; Pentanoyl(4-Me) = CC(C)CCC(=O)*; Cba = N[C@@H](CC1CCC1)C(=O)O; Chg = N[C@H](C(=O)O)C1CCCCC1; Orn = NCCC[C@H](N)C(=O)O; Dap = NC[C@H](N)C(=O)O; Bz = O=C(c1ccccc1)*
What was measured:
Protein AF-9 = target: T1, Protein AF-9 (Homo sapiens, UniProt P42568); test: Displacement of N-Flu-DOT1L from MBP-tagged AF9 (unknown origin) (487 to 568 residues) expressed in Escherichia coli BL21(DE3) measured after 3 hrs by fluorescence polarization assay
T1 sequence (P42568 whole entry): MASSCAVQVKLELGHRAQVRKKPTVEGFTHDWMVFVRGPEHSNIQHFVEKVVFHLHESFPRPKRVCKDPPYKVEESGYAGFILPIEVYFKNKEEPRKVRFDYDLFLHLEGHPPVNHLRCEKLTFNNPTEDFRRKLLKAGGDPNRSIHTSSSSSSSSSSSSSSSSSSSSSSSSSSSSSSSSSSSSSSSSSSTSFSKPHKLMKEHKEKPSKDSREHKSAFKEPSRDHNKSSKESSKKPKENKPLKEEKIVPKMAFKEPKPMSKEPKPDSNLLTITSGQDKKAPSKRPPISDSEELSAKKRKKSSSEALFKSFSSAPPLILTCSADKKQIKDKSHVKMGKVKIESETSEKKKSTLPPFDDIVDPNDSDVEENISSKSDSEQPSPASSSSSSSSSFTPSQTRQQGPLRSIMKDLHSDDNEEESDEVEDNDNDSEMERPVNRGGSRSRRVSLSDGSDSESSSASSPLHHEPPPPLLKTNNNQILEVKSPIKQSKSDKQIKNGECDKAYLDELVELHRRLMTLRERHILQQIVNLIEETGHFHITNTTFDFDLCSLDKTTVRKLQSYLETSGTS

Protein ENL = target: T2, Protein ENL (Homo sapiens, UniProt Q03111); test: Displacement of N-Flu-DOT1L from MBP-tagged ENL (unknown origin) (489 to 559 residues) expressed in Escherichia coli BL21(DE3) measured after 3 hrs by fluorescence polarization assay
T2 sequence (Q03111 whole entry): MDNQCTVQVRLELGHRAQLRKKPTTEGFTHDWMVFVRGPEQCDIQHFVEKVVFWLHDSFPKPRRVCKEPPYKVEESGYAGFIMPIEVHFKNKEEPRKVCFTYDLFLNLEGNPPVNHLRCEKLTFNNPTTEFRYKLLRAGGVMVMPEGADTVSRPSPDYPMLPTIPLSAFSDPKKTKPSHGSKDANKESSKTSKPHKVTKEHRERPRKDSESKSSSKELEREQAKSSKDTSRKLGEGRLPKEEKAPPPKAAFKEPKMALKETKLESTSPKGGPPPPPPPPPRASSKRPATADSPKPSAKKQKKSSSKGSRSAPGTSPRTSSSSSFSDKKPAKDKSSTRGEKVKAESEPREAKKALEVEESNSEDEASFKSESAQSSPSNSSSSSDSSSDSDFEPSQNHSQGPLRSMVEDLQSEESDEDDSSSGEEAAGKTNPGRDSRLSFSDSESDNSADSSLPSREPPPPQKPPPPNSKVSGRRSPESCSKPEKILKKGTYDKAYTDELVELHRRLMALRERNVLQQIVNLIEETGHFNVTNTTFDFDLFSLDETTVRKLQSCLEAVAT

Compound	IC50 (Protein AF-9)	Ki (Protein AF-9)	IC50 (Protein ENL)	Ki (Protein ENL)
CC(C)[C@H](NC(=O)[C@@H]1CCCN1C(=O)c1ccccc1)C(=O)N[C@@H](CN)C(=O)N[C@@H](CC1CCCC1)C(=O)N1CCC[C@H]1c1nc(-c2ccccc2)cn1CC1CCCCC1 (Bz-PV[Dap][Ala(cPent)]-X3)	57 nM	9 nM	504 nM	119 nM
CCn1cc(-c2ccccc2)nc1[C@@H]1CCCN1C(=O)[C@H](CC1CCCC1)NC(=O)[C@H](CN)NC(=O)[C@@H](NC(=O)[C@@H]1CCCN1C(=O)[C@H](CC(C)C)NC(C)=O)C(C)C (Ac-LPV[Dap][Ala(cPent)]-X1)	341 nM	50 nM	1570 nM	369 nM
Ac-LPISIPLSTV-NH2	140 nM	20 nM	630 nM	150 nM
Ac-LPISIPL-NH2	1040 nM	160 nM	10300 nM	3370 nM
CC[C@H](C)[C@H](NC(=O)[C@@H]1CCCN1C(=O)[C@H](CC(C)C)NC(C)=O)C(=O)N[C@@H](CO)C(=O)N[C@H](C(=O)N1CCC[C@H]1C(=O)N[C@@H](CC(C)C)C(=O)N(C)C)C1CCCC1 (Ac-LPIS[Gly(cPent)]PL-NMe2)	1490 nM	250 nM	4540 nM	1340 nM
CC[C@H](C)[C@H](NC(=O)[C@H](CO)NC(=O)[C@@H](NC(=O)[C@@H]1CCCN1C(=O)[C@H](CC(C)C)NC(C)=O)C(C)C)C(=O)N1CCC[C@H]1C(=O)N[C@@H](CC(C)C)C(=O)N(C)C (Ac-LPVSIPL-NMe2)	1100 nM	170 nM	3600 nM	1010 nM
CC[C@H](C)[C@H](NC(=O)[C@H](CO)NC(=O)[C@H](CC1CC1)NC(=O)[C@@H]1CCCN1C(=O)[C@H](CC(C)C)NC(C)=O)C(=O)N1CCC[C@H]1C(=O)N[C@@H](CC(C)C)C(=O)N(C)C (Ac-LP[Ala(cPr)]SIPL-NMe2)	4290 nM	780 nM	14600 nM	4890 nM
CC(=O)N[C@@H](CC(C)C)C(=O)N1CCC[C@H]1C(=O)N[C@H](C(=O)N[C@@H](CN)C(=O)N[C@@H](CC1CCCC1)C(=O)N1CCC[C@H]1c1nc(-c2ccccc2)cn1C)C(C)C (Ac-LPV[Dap][Ala(cPent)]-X4)	372 nM	57 nM	1770 nM	417 nM
CC[C@H](C)[C@H](NC(=O)[C@@H]1CCCN1C(=O)[C@H](CC(C)C)NC(C)=O)C(=O)N[C@@H](CO)C(=O)N[C@H](C(=O)N1CCC[C@H]1C(=O)N[C@@H](CC(C)C)C(=O)N(C)C)C1CCCCC1 (Ac-LPIS[Chg]PL-NMe2)	3490 nM	620 nM	10500 nM	3440 nM
CC[C@H](C)[C@H](NC(=O)[C@@H]1CCCN1C(=O)[C@H](CC(C)C)NC(C)=O)C(=O)N[C@@H](CO)C(=O)N[C@H](C(=O)N1CCC[C@H]1C(=O)N[C@@H](CC(C)C)C(=O)N(C)C)[C@@H](C)CC (Ac-LPISIPL-NMe2)	1780 nM	300 nM	6830 nM	2150 nM
CC[C@H](C)[C@H](NC(=O)[C@@H]1CCCN1C(=O)[C@H](CC(C)C)NC(C)=O)C(=O)N[C@@H](CO)C(=O)N[C@@H](Cc1c[nH]c2ccccc12)C(=O)N1CCC[C@H]1C(=O)N[C@@H](CC(C)C)C(=O)N(C)C (Ac-LPISWPL-NMe2)	2370 nM	410 nM	7420 nM	2350 nM
CC(=O)N[C@@H](CC(C)C)C(=O)N1CCC[C@H]1C(=O)N[C@H](C(=O)N[C@@H](CN)C(=O)N[C@@H](CC1CCCC1)C(=O)N1CCC[C@H]1c1nc(-c2ccccc2)cn1CC1CCCCC1)C(C)C (Ac-LPV[Dap][Ala(cPent)]-X3)	82 nM	13 nM	427 nM	101 nM
CC(C)CCC(=O)N1CCC[C@H]1C(=O)N[C@H](C(=O)N[C@@H](CN)C(=O)N[C@@H](CC1CCCC1)C(=O)N1CCC[C@H]1c1nc(-c2ccccc2)cn1CC1CCCCC1)C(C)C ({Pentanoyl(4-Me)}-PV[Dap][Ala(cPent)]-X3)	149 nM	23 nM	237 nM	56 nM
CC[C@H](C)[C@H](NC(=O)[C@@H]1CCCN1C(=O)[C@H](CC(C)C)NC(C)=O)C(=O)N[C@@H](CN)C(=O)N[C@@H](CC1CCCC1)C(=O)N1CCC[C@H]1C(=O)N[C@@H](CC(C)C)C(=O)N(C)C (Ac-LPI[Dap][Ala(cPent)]PL-NMe2)	120 nM	20 nM	390 nM	90 nM
CC[C@H](C)[C@H](NC(=O)[C@@H]1CCCN1C(=O)[C@H](CC(C)C)NC(C)=O)C(=O)N[C@@H](CCCN)C(=O)N[C@H](C(=O)N1CCC[C@H]1C(=O)N[C@@H](CC(C)C)C(=O)N(C)C)[C@@H](C)CC (Ac-LPI[Orn]IPL-NMe2)	24300 nM	4250 nM	172000 nM	60200 nM
CC(=O)N[C@@H](CC(C)C)C(=O)N1CCC[C@H]1C(=O)N[C@H](C(=O)N[C@@H](CN)C(=O)N[C@@H](CC1CCCC1)C(=O)N1CCC[C@H]1c1nc(-c2ccccc2)cn1C(C)C)C(C)C (Ac-LPV[Dap][Ala(cPent)]-X2)	369 nM	57 nM	1220 nM	287 nM
CC[C@H](C)[C@H](NC(=O)[C@@H]1CCCN1C(=O)[C@H](CC(C)C)NC(C)=O)C(=O)N[C@@H](CO)C(=O)N[C@@H](Cc1cccc2ccccc12)C(=O)N1CCC[C@H]1C(=O)N[C@@H](CC(C)C)C(=O)N(C)C (Ac-LPIS[1Nal]PL-NMe2)	14200 nM	2600 nM	57800 nM	20100 nM
Ac-LPVSIPL-NH2	1020 nM	160 nM	4790 nM	1430 nM
CC[C@H](C)[C@H](NC(=O)[C@H](CO)NC(=O)[C@H](CC1CCC1)NC(=O)[C@@H]1CCCN1C(=O)[C@H](CC(C)C)NC(C)=O)C(=O)N1CCC[C@H]1C(=O)N[C@@H](CC(C)C)C(=O)N(C)C (Ac-LP[Cba]SIPL-NMe2)	7230 nM	1310 nM	23600 nM	8040 nM
CC[C@H](C)[C@H](NC(=O)[C@@H]1CCCN1C(=O)[C@H](CC(C)C)NC(C)=O)C(=O)N[C@@H](CO)C(=O)N[C@@H](CC1CCCC1)C(=O)N1CCC[C@H]1C(=O)N[C@@H](CC(C)C)C(=O)N(C)C (Ac-LPIS[Ala(cPent)]PL-NMe2)	850 nM	130 nM	2170 nM	510 nM
CC[C@H](C)[C@H](NC(=O)[C@H](CO)NC(=O)[C@H](CC(C)C)NC(=O)[C@@H]1CCCN1C(=O)[C@H](CC(C)C)NC(C)=O)C(=O)N1CCC[C@H]1C(=O)N[C@@H](CC(C)C)C(=O)N(C)C (Ac-LPLSIPL-NMe2)	6400 nM	1160 nM	43900 nM	15200 nM
CC[C@H](C)[C@H](NC(=O)[C@@H]1CCCN1C(=O)[C@H](CC(C)C)NC(C)=O)C(=O)N[C@@H](CO)C(=O)N[C@@H](CC(C)C)C(=O)N1CCC[C@H]1C(=O)N[C@@H](CC(C)C)C(=O)N(C)C (Ac-LPISLPL-NMe2)	4660 nM	830 nM	18600 nM	6290 nM
CC[C@H](C)[C@H](NC(=O)[C@@H]1CCCN1C(=O)[C@H](CC(C)C)NC(C)=O)C(=O)N[C@@H](CO)C(=O)N[C@@H](Cc1ccc2ccccc2c1)C(=O)N1CCC[C@H]1C(=O)N[C@@H](CC(C)C)C(=O)N(C)C (Ac-LPIS[2Nal]PL-NMe2)	4110 nM	730 nM	42200 nM	14600 nM
CC[C@H](C)[C@H](NC(=O)[C@@H]1CCCN1C(=O)[C@H](CC(C)C)NC(C)=O)C(=O)N[C@@H](CO)C(=O)N[C@@H](Cc1ccccc1)C(=O)N1CCC[C@H]1C(=O)N[C@@H](CC(C)C)C(=O)N(C)C (Ac-LPISFPL-NMe2)	1660 nM	280 nM	22700 nM	7730 nM
CC[C@H](C)[C@H](NC(=O)[C@H](CO)NC(=O)[C@H](Cc1ccccc1)NC(=O)[C@@H]1CCCN1C(=O)[C@H](CC(C)C)NC(C)=O)C(=O)N1CCC[C@H]1C(=O)N[C@@H](CC(C)C)C(=O)N(C)C (Ac-LPFSIPL-NMe2)	30500 nM	5620 nM	177000 nM	62000 nM
CC[C@H](C)[C@H](NC(=O)[C@@H]1CCCN1C(=O)[C@H](CC(C)C)NC(C)=O)C(=O)N[C@@H](CN)C(=O)N[C@H](C(=O)N1CCC[C@H]1C(=O)N[C@@H](CC(C)C)C(=O)N(C)C)[C@@H](C)CC (Ac-LPI[Dap]IPL-NMe2)	1200 nM	190 nM	4250 nM	1240 nM

Source: ChEMBL document CHEMBL4196231, “Peptidomimetics for Targeting Protein-Protein Interactions between DOT1L and MLL Oncofusion Proteins AF9 and ENL” (ACS Med Chem Lett, 2018)
